Where a name gives a salt, the structure may show the parent alone.
System: MHC-I expression by COLO 205 cells
Assay: cells
Format: cell-based, human
Details: Homo sapiens, COLO 205, 48 h, MHC-I expression, COLO 205 cells, compounds at 35 μM, 48 hours, flow cytometry (W6/32); read-out: Induction Fold
Procedure: A panel of synthetic cannabinoids (Cayman Chemical, #9002891) was tested for MHC class I-inducing capability in COLO 205 cells as described above. COLO 205 cells were treated with the compounds at a concentration of 35 μM and evaluated for cell surface MHC class I expression after 48 hours. Cells were harvested, stained with MHC-I mAb W6/32 (Thermo Fisher). MHC-I expression was determined by flow cytometry.

**Q.** With CC(C)(NC(=O)c1cn(CCCCCF)c2ccccc12)c1ccccc1 [Example 356, 1-(5-fluoropentyl)-N-(1-methyl-1-phenylethyl)-1H-indole-3-carboxamide] as the compound, how does the fold induction at 35 µM read?
**A.** The fold induction at 35 µM was 1.03.

**Q.** For O=C(NCC1CC1)c1cn(CCCCCF)c2ccccc12 [Example 357, N-(cyclopropylmethyl)-1-(5-fluoropentyl)-1H-indole-3-carboxamide], which fold induction at 35 µM is on record?
**A.** The fold induction at 35 µM was 1.03.

**Q.** For CCCC(F)Cn1cc(C(=O)c2ccc(C)c3ccccc23)c2ccccc21 (centres unmarked) [Example 359, (1-(2-fluoropentyl)-1H-indol-3-yl)(4-methylnaphthalen-1-yl)methanone], which fold induction at 35 µM is on record?
**A.** The fold induction at 35 µM was 1.

**Q.** With CCCCCCC(C)(C)c1cc(O)c2c(c1)OC(C)(C)[C@H]1CC=C(CO)C[C@H]21 [Example 360, 3-(1,1-dimethylheptyl)-6aS,7,10,10aS-tetrahydro-1-hydroxy-6,6-dimethyl-6H-dibenzo[b,d]pyran-9-methanol] as the compound, how does the fold induction at 35 µM read?
**A.** Its fold induction at 35 µM is 0.96.

**Q.** For CCCC(C)n1cc(C(=O)c2ccc3ccccc3c2)c2ccccc21 (centres unmarked) [Example 362, naphthalen-2-yl(1-(pentan-2-yl)-1H-indol-3-yl)methanone], which fold induction at 35 µM is on record?
**A.** The fold induction at 35 µM was 0.95.

**Q.** How did the fold induction at 35 µM turn out when CCOc1ccc(Cc2nc3cc(C(=O)N(CC)CC)ccc3n2CC2CCCCC2)cc1 [Example 363, 1-(cyclohexylmethyl)-2-[(4-ethoxyphenyl)methyl]-N,N-diethyl-1H-benzimidazole-5-carboxamide] was run?
**A.** Its fold induction at 35 µM is 0.92.

**Q.** Which fold induction at 35 µM does the source give for CCCCCn1cc(C(=O)NC23CC4CC(CC(C4)C2)C3)c(=O)c2cc(C(C)C)ccc21 [Example 364, 1,4-dihydro-6-(1-methylethyl)-4-oxo-1-pentyl-N-tricyclo[3.3.1.1^3, 7]dec-1-yl-3-quinolinecarboxamide] here?
**A.** The fold induction at 35 µM was 0.89.

**Q.** For CCCCCCC(C)(C)c1ccc([C@H]2C[C@@H](O)CC[C@@H]2CCCO)c(O)c1 [Example 365, 2-((1S,2S,5S)-5-hydroxy-2-(3-hydroxypropyl)cyclohexyl)-5-(2-methyloctan-2-yl)phenol], which fold induction at 35 µM is on record?
**A.** The fold induction at 35 µM was 0.89.

**Q.** How did the fold induction at 35 µM turn out when CCCCCn1cc(-c2nc(CN(CCOC)C(C)C)cs2)c2ccccc21 [Example 369, N-(2-methoxyethyl)-N-(1-methylethyl)-2-(1-pentyl-1H-indol-3-yl)-4-thiazolemethanamine, monohydrochloride] was run?
**A.** The fold induction at 35 µM was 0.85.

**Q.** Which fold induction at 35 µM does the source give for CCCCn1cc(C(=O)c2ccc(OC)c3ccccc23)c2ccccc21 [Example 370, (1-butyl-1H-indol-3-yl)(4-methoxy-1-naphthalenyl)-methanone] here?
**A.** The fold induction at 35 µM was 0.82.

**Q.** How did the fold induction at 35 µM turn out when CCCCCCC(C)(C)c1ccc([C@H]2CCC[C@@H](O)C2)c(O)c1 [Example 371, 2[(1S,3R)-3-hydroxycyclohexyl]-5-(2-methyloctan-2-yl)phenol] was run?
**A.** The fold induction at 35 µM was 0.78.

**Q.** For CCCCCn1c(C)c(C(=O)c2ccc(OC)c3ccccc23)c2ccccc21 [Example 372, (4-methoxy-1-naphthalenyl)(2-methyl-1-pentyl-1H-indol-3-yl)-methanone], which fold induction at 35 µM is on record?
**A.** The fold induction at 35 µM was 0.6.

Same assay, conditions: Homo sapiens, COLO 205, 48 h, read-out: Induction Fold

**Q.** For CN1CCCCC1Cn1cc(C(=O)C2C(C)(C)C2(C)C)c2ccccc21 (centres unmarked) [Example 368, [1-[(1-methyl-2-piperidinyl)methyl]-1H-indol-3-yl](2,2,3,3-tetramethylcyclopropyl)-methanone], which fold induction at 35 µM is on record?
**A.** Its fold induction at 35 µM is 0.85.

Same assay, conditions: MHC-I expression, COLO 205 cells, compounds at 35 μM, 48 hours, flow cytometry (W6/32)

**Q.** CC[C@H](C)[C@H](NC(=O)c1c2ccccc2nn1CCCCCF)C(N)=O [Example 355, N-(1-amino-3S-methyl-1-oxopentan-2S-yl)-2-(5-fluoropentyl)-2H-indazole-3-carboxamide] was tested. Which “Induction Fold” value did it give?
**A.** Its value is 1.05 Fold.

**Q.** Which “Induction Fold” value does the source give for O=C(OC12CC3CC(CC(C3)C1)C2)c1nn(CCCCCF)c2ccccc12 [Example 358, (3s,5s,7s)-adamantan-1-yl 1-(5-fluoropentyl)-1H-indazole-3-carboxylate] here?
**A.** The value was 1.02 Fold.

**Q.** With CCCCCn1cc(-c2nc(CN(CC)CC)cs2)c2ccccc21 [Example 366] as the compound, how does the “Induction Fold” value read?
**A.** Its value is 0.89 Fold.

**Q.** How did the “Induction Fold” value turn out when CC1=CC[C@@H]2[C@@H](C1)c1c(O)cc(C(C)(C)c3ccccc3)cc1OC2(C)C [Example 367, 6aR,7,10,10aR-tetrahydro-6,6,9-trimethyl-3-(1-methyl-1-phenylethyl)-6H-dibenzo[b,d]pyran-1-ol] was run?
**A.** Its value is 0.87 Fold.
